In patent US20130210061A1, “Method of Screening Damp-Dry Malodor Inhibitor and Method of Evaluating Damp-Dry Malodor Inhibitor” (KAO CORPORATION, priority 2010, published 2013):

Assays:
Assay in all cases: Example 1: quantification of 4M3H on cotton fabric with 14-methylhexadecanoic acid
M. osloensis NCIMB10693 = assay type: cell-based, Moraxella osloensis; conditions: Faucicola osloensis; 100 ppm test substance; M. osloensis NCIMB10693; cotton fabric with 14-methylhexadecanoic acid; 37° C., 24 hours; vs sterilized water; read-out: Production amount of 4M3H
Method: (§1) 10 mL of methanol was added to the towel that had been left to stand still for 24 hours, and 1 mL of the methanol was mixed with 1 mL of ADAM (9-anthrydiazomethanene, manufactured by Funakoshi Corp., 0.1 w/v %). The mixture was left to stand for 60 minutes at room temperature, and thus derivatization was carried out.
(§2) Thereafter, 10 μL of the solution was analyzed by using LC-FL (liquid chromatography apparatus: HITACHI ELITE LaChrom (trade name, manufactured by Hitachi, Ltd.), column: Lichrosphere 100 RP-8(e) (trade name, manufactured by Agilent Technologies, Inc., 5 μm×125 mm×4 mmφ), column temperature: 40° C., eluent a mixed solution of acetonitrile/water=7/3 (volume ratio), flow rate: 1.0 mL/min, detector: excitation wavelength (365 nm), measurement wavelength (412 nm)), and thereby quantification of 4M3H thus produced was carried out. In regard to the amount of production of 4M3H, a sample which produced 4M3H in an amount of more than 1 μg was rated as “[…]”; a sample which produced 4M3H in an amount of more than 0.1 μg and 1 μg or less was rated as “∘”; a sample which produced 4M3H in an amount of more than 0 μg and 0.1 μg or less was rated as “Δ”; and a sample in which no 4M3H was detected was rated as “x”.
(§3) One platinum loop of each of Moraxella osloensis NCIMB10693, Moraxella sp. 4-1, Psychrobacter pacificensis NBRC103191, Psychrobacter glacincola NCIMB101053, Pseudomonas alcaligenes No. 41, Acinetobacter calcoaceticus HH2BD-49, Saccaromyces cerevisiae NBRC1661, Rhodotorula mucilaginosa NBRC0909 and Rhodotorula slooffiae 13c was inoculated into 5 mL of a SCD liquid medium (manufactured by Nihon Pharmaceutical Co., Ltd.), and the microbial cells were subjected to shaking culture (160 rpm) at 35° C. for 24 hours. The microbial cells obtained after culture were centrifuged (8000×g, 10 minutes), the supernatant was removed, and then the microbial cells were suspended in 5 mL of physiological saline. The suspension was centrifuged again (8000×g, 10 minutes), subsequently the supernatant was removed, and a microbial suspension was prepared by using physiological saline such that the OD600 would be 0.1.
(§4) Furthermore, 0.1 mL each of 10-ppm or 100-ppm aqueous solutions of the compounds shown in the following Table 6 was applied on the fabric described above. As a control, a fabric on which sterilized water was applied instead of the compounds described below was also prepared.
(§5) On a plain-woven cotton fabric prepared as described above, 0.1 mL each of the various microbial suspensions was inoculated, and the samples were left to stand still under humidified conditions at 37° C. for 24 hours and were subjected to an evaluation such as described below.
(§6) Quantification of 4M3H was carried out by the same method as that used in Test Example 3, and by taking as a reference the 4M3H production amount of a sample on which sterilized water was applied as a test substance, the 4M3H production amounts in the case of applying other test substances were evaluated on the basis of the following criteria. • A: (4M3H production amount in the case of applying a test substance)<( 1/100 of the 4M3H production amount in the case of applying sterilized water) • B: ( 1/100 of the 4M3H production amount in the case of applying sterilized water)≦(4M3H production amount in the case of applying a test substance)<( 1/10 of the 4M3H production amount in the case of applying sterilized water) • C: ( 1/10 of the 4M3H production amount in the case of applying sterilized water)≦(4M3H production amount in the case of applying a test substance)<(4M3H production amount in the case of applying sterilized water) • D: (4M3H production amount in the case of applying sterilized water)≦(4M3H production amount in the case of applying a test substance)

Moraxella sp. 4-1 = assay type: cell-based; conditions: 100 ppm test substance, 37° C., 24 hours, vs sterilized water
Method: as §1, §2, §3, §4, §5, §6

[1] = system: P. pacificensis NBRC103191; assay type: cell-based, Psychrobacter pacificensis; conditions: 100 ppm test substance, 37° C., 24 hours, vs sterilized water
Method: as §1, §2, §3, §4, §5, §6

P. glacincola NBRC101053 = assay type: cell-based, Psychrobacter glacincola; conditions: 100 ppm test substance, 37° C., 24 hours, vs sterilized water
Method: as §1, §2, §3, §4, §5, §6

P. alcaligenes No. 41 = assay type: cell-based, Pseudomonas alcaligenes; conditions: 100 ppm test substance, 37° C., 24 hours, vs sterilized water
Method: as §1, §2, §3, §4, §5, §6

[2] = system: A. calcoaceticus HH2BD-49; assay type: cell-based, Acinetobacter calcoaceticus; conditions: 100 ppm test substance, 37° C., 24 hours, vs sterilized water
Method: as §1, §2, §3, §4, §5, §6

S. cerevisiae NBRC1661 = assay type: cell-based, Saccaromyces cerevisiae; conditions: 100 ppm test substance, 37° C., 24 hours, vs sterilized water
Method: as §1, §2, §3, §4, §5, §6

R. muculaginosa NBRC0909 = assay type: cell-based, Rhodotorula mucilaginosa; conditions: 100 ppm test substance, 37° C., 24 hours, vs sterilized water
Method: as §1, §2, §3, §4, §5, §6

R. slooffiae 13c = assay type: cell-based, Rhodotorula slooffiae; conditions: 100 ppm test substance, 37° C., 24 hours, vs sterilized water
Method: as §1, §2, §3, §4, §5, §6

SMILES: CCCCCCCC/C=C\CCCCCCCC(=O)O [Oleic acid]
- activity at 100 ppm (M. osloensis NCIMB10693): 1 to 10%
- Production amount of 4M3H (Moraxella sp. 4-1): B (( 1/100 of the 4M3H production amount in the case of applying sterilized water)≦(4M3H production amount in the case of applying a test substance)<( 1/10 of the 4M3H production amount in the case of applying sterilized water))
- Production amount of 4M3H [1]: C (( 1/10 of the 4M3H production amount in the case of applying sterilized water)≦(4M3H production amount in the case of applying a test substance)<(4M3H production amount in the case of applying sterilized water))
- Production amount of 4M3H (P. glacincola NBRC101053): A ((4M3H production amount in the case of applying a test substance)<( 1/100 of the 4M3H production amount in the case of applying sterilized water))
- Production amount of 4M3H (P. alcaligenes No. 41): C (( 1/10 of the 4M3H production amount in the case of applying sterilized water)≦(4M3H production amount in the case of applying a test substance)<(4M3H production amount in the case of applying sterilized water))
- Production amount of 4M3H [2]: C (( 1/10 of the 4M3H production amount in the case of applying sterilized water)≦(4M3H production amount in the case of applying a test substance)<(4M3H production amount in the case of applying sterilized water))
- Production amount of 4M3H (S. cerevisiae NBRC1661): B (( 1/100 of the 4M3H production amount in the case of applying sterilized water)≦(4M3H production amount in the case of applying a test substance)<( 1/10 of the 4M3H production amount in the case of applying sterilized water))
- Production amount of 4M3H (R. muculaginosa NBRC0909): B (( 1/100 of the 4M3H production amount in the case of applying sterilized water)≦(4M3H production amount in the case of applying a test substance)<( 1/10 of the 4M3H production amount in the case of applying sterilized water))
- Production amount of 4M3H (R. slooffiae 13c): C (( 1/10 of the 4M3H production amount in the case of applying sterilized water)≦(4M3H production amount in the case of applying a test substance)<(4M3H production amount in the case of applying sterilized water))
